This note sets out measurements from US9873709B2 (priority 2013, dated 2018).

Assay [1] concerns JAK1-dependent STAT6 phosphorylation downstream of IL-13 stimulation in BEAS-2B human bronchial epithelial cells. Description: cells. To be noted: read-out: IL13-pSTAT6 BEASB2B IC50.
The test system of assay [2] is JAK1-dependent STAT6 phosphorylation downstream of IL-13 stimulation in TF-1 human erythroleukemia cells. Description: cells. To be noted: TF-1, read-out: IL-13-pSTAT6 IC50.

For orientation: IC50 means the concentration that gives 50% inhibition. Turning to `CN1CCC(N(C)C(=O)c2ccc(Nc3nc4c(N5CCC(O)(c6ccc(Cl)cc6)CC5)cccn4n3)cc2)CC1` [Example 1-17, 4-[[8-[4-(4-chlorophenyl)-4-hydroxy-1-piperidyl]-[1,2,4]triazolo[1,5-a]pyridin-2-yl]amino]-N-methyl-N-(1-methyl-4-piperidyl)benzamide], the IC50 in assay [1] was 153 nM; in assay [2], 33.9 nM.

Turning to `CNC1CN(C(=O)c2ccc(Nc3nc4c(N5CCC(O)(c6ccc(Cl)cc6)CC5)cccn4n3)cc2)C1` [Example 1-47, [4-[[8-[4-(4-chlorophenyl)-4-hydroxy-1-piperidyl]-[1,2,4]triazolo[1,5-a]pyridin-2-yl]amino]phenyl]-[3-(methylamino)azetidin-1-yl]methanone], the values for the IC50 in assay [1] and in assay [2] were 58.1 nM and 10.3 nM, respectively.

On to `O=C(NCCCN1CCOCC1)c1ccc(Nc2nc3c(N4CCC(O)(c5ccc(Cl)cc5)CC4)cccn3n2)cc1` [Example 1-98, 4-[[8-[4-(4-chlorophenyl)-4-hydroxy-1-piperidyl]-[1,2,4]triazolo[1,5-a]pyridin-2-yl]amino]-N-(3-morpholinopropyl) benzamide], for which the results for the IC50 in assay [1] and in assay [2] were 42.4 nM and 11.9 nM, respectively.

Consider `CN1CCCC1CCNC(=O)c1ccc(Nc2nc3c(N4CCC(O)(c5ccc(Cl)cc5)CC4)cccn3n2)cc1` (centres unmarked) [Example 1-102, 4-[[8-[4-(4-chlorophenyl)-4-hydroxy-1-piperidyl]-[1,2,4]triazolo[1,5-a]pyridin-2-yl]amino]-N-[2-(1-methylpyrrolidin-2-yl)ethyl]benzamide], for which the IC50 in assay [1] amounted to 54.7 nM; in assay [2], 45 nM.

With `O=C(c1ccc(Nc2nc3c(N4CCC(O)(c5ccc(Cl)cc5)CC4)cccn3n2)cc1)N1CCC(N2CCOCC2)C1` (centres unmarked) [Example 1-127, [4-[[8-[4-(4-chlorophenyl)-4-hydroxy-1-piperidyl]-[1,2,4]triazolo[1,5-a]pyridin-2-yl]amino]phenyl]-(3-morpholinopyrrolidin-1-yl)methanone], the IC50 turned out to be 24.5 nM in assay [1] and 14.7 nM in assay [2].

On to `CN(C)c1cc(CC2CCN(C(=O)c3ccc(Nc4nc5c(N6CCC(O)(c7ccc(Cl)cc7)CC6)cccn5n4)cc3)C2)ncn1` (centres unmarked) [Example 1-151, [4-[[8-[4-(4-chlorophenyl)-4-hydroxy-1-piperidyl]-[1,2,4]triazolo[1,5-a]pyridin-2-yl]amino]phenyl]-[3-[[6-(dimethylamino)pyrimidin-4-yl]methyl]pyrrolidin-1-yl]methanone], for which the IC50 came out at 167 nM in assay [1] and 107 nM in assay [2].

With `O=C(NCCc1ccncc1)c1ccc(Nc2nc3c(N4CCC(O)(c5ccc(Cl)cc5)CC4)cccn3n2)cc1` [Example 1-161, 4-[[8-[4-(4-chlorophenyl)-4-hydroxy-1-piperidyl]-[1,2,4]triazolo[1,5-a]pyridin-2-yl]amino]-N-[2-(4-pyridyl)ethyl]benzamide], the IC50 was determined as 48.5 nM in assay [1] and 23.4 nM in assay [2].

In the case of `CN1CCC(N(C)C(=O)c2ccc(Nc3nc4c(N5CCC(CCO)(c6ccc(Cl)cc6)CC5)cccn4n3)cc2)CC1` [Example 1-255, 4-[[8-[4-(4-chlorophenyl)-4-(2-hydroxyethyl)-1-piperidyl]-[1,2,4]triazolo[1,5-a]pyridin-2-yl]amino]-N-methyl-N-(1-methyl-4-piperidyl)benzamide; formic acid], the IC50 in assay [1] was found to be 159 nM; in assay [2], 27.1 nM.

Turning to `COCC1(c2ccc(Cl)cc2)CCN(c2cccn3nc(Nc4ccc(C(=O)N(C)C5CCN(C)CC5)cc4)nc23)CC1` [Example 1-258, 4-[[8-[4-(4-chlorophenyl)-4-(methoxymethyl)-1-piperidyl]-[1,2,4]triazolo[1,5-a]pyridin-2-yl]amino]-N-methyl-N-(1-methyl-4-piperidyl)benzamide; formic acid], the IC50 in assay [1] is 1440 nM; in assay [2], 93.4 nM.

Regarding `CN1CCC(N(C)C(=O)c2ccc(Nc3nc4c(N5CCC(c6ccc(Cl)cc6)(C(O)CO)CC5)cccn4n3)cc2)CC1` (centres unmarked) [Example 1-270, 4-[[8-[4-(4-chlorophenyl)-4-(1,2-dihydroxyethyl)-1-piperidyl]-[1,2,4]triazolo[1,5-a]pyridin-2-yl]amino]-N-methyl-N-(1-methyl-4-piperidyl)benzamide], the IC50 in assay [1] amounted to 114 nM.

Turning to `CN1CCC2CN(C(=O)c3ccc(Nc4nc5c(N6CCC(CO)(c7ccc(Cl)cc7)CC6)cccn5n4)cc3)CC21` (centres unmarked) [Example 1-275, [4-[[8-[4-(4-chlorophenyl)-4-(hydroxymethyl)-1-piperidyl]-[1,2,4]triazolo[1,5-a]pyridin-2-yl]amino]phenyl]-(1-methyl-2,3,3a,4,6,6a-hexahydropyrrolo[2,3-c]pyrrol-5-yl)methanone], the IC50 in assay [1] was determined as 55.5 nM; in assay [2] it was 3 nM.

Turning to `O=C(c1ccc(Nc2nc3c(N4CCC(CO)(c5ccc(Cl)cc5)CC4)cccn3n2)cc1)N1CCC(c2ccccn2)CC1` [Example 1-276, [4-[[8-[4-(4-chlorophenyl)-4-(hydroxymethyl)-1-piperidyl]-[1,2,4]triazolo[1,5-a]pyridin-2-yl]amino]phenyl]-[4-(2-pyridyl)-1-piperidyl]methanone], the IC50 was 82 nM in assay [1] and 95.7 nM in assay [2].

Regarding `C[C@H]1CN(CCNC(=O)c2ccc(Nc3nc4c(N5CCC(CO)(c6ccc(Cl)cc6)CC5)cccn4n3)cc2)C[C@H](C)O1` [Example 1-277, 4-[[8-[4-(4-chlorophenyl)-4-(hydroxymethyl)-1-piperidyl]-[1,2,4]triazolo[1,5-a]pyridin-2-yl]amino]-N-[2-[(2S,6S)-2,6-dimethylmorpholin-4-yl]ethyl]benzamide], the IC50 in assay [1] was determined as 73.3 nM; in assay [2], 23.1 nM.

As to `C[C@@H]1CN(CCNC(=O)c2ccc(Nc3nc4c(N5CCC(CO)(c6ccc(Cl)cc6)CC5)cccn4n3)cc2)C[C@H](C)O1` [Example 1-278, 4-[[8-[4-(4-chlorophenyl)-4-(hydroxymethyl)-1-piperidyl]-[1,2,4]triazolo[1,5-a]pyridin-2-yl]amino]-N-[2-[(2R,6S)-2,6-dimethylmorpholin-4-yl]ethyl]benzamide], the IC50 in assay [1] came out at 37.6 nM; in assay [2], 16.3 nM.

Take `O=C(c1ccc(Nc2nc3c(N4CCC(CO)(c5ccc(Cl)cc5)CC4)cccn3n2)cc1)N1CCC(c2ccncc2)C1` (centres unmarked) [Example 1-279, [4-[[8-[4-(4-chlorophenyl)-4-(hydroxymethyl)-1-piperidyl]-[1,2,4]triazolo[1,5-a]pyridin-2-yl]amino]phenyl]-[3-(4-pyridyl)pyrrolidin-1-yl]methanone]: the results for the IC50 in assay [1] and in assay [2] were 34.6 nM and 28.1 nM, respectively.

In the case of `O=C(NC1CCN(C2CCCC2)CC1)c1ccc(Nc2nc3c(N4CCC(CO)(c5ccc(Cl)cc5)CC4)cccn3n2)cc1` [Example 1-280, 4-[[8-[4-(4-chlorophenyl)-4-(hydroxymethyl)-1-piperidyl]-[1,2,4]triazolo[1,5-a]pyridin-2-yl]amino]-N-(1-cyclopentyl-4-piperidyl)benzamide], the values for the IC50 in assay [1] and in assay [2] were 52.8 nM and 124 nM, respectively.

Consider `O=C(Cn1cc(Nc2nc3c(N4CCC(CO)(c5ccc(Cl)cc5)CC4)cccn3n2)cn1)N1CCC(CN2CCOCC2)CC1` [Example 1-289, 2-[4-[[8-[4-(4-chlorophenyl)-4-(hydroxymethyl)-1-piperidyl]-[1,2,4]triazolo[1,5-a]pyridin-2-yl]amino]pyrazol-1-yl]-1-[4-(morpholinomethyl)-1-piperidyl]ethanone], for which the IC50 in assay [1] was 8.1 nM.

On to `CNC1CCN(C(=O)Cn2cc(Nc3nc4c(N5CCC(CO)(c6ccc(Cl)cc6)CC5)cccn4n3)cn2)CC1` [Example 1-291, 2-[4-[[8-[4-(4-chlorophenyl)-4-(hydroxymethyl)-1-piperidyl]-[1,2,4]triazolo[1,5-a]pyridin-2-yl]amino]pyrazol-1-yl]-1-[4-(methylamino)-1-piperidyl]ethanone], for which, in assay [1], the IC50 is 525 nM.

For the compound `O=C(NCCCN1CCOCC1)c1ccc(Nc2nc3c(C4C=CN(C(=O)CCC(F)(F)F)CC4)cccn3n2)cc1` (centres unmarked) [Example 1-295, N-(3-morpholinopropyl)-4-[[8-[1-(4,4,4-trifluorobutanoyl)-3,4-dihydro-2H-pyridin-4-yl]-[1,2,4]triazolo[1,5-a]pyridin-2-yl]amino]benzamide], in assay [1], the IC50 amounted to 729 nM.

Turning to `CN(CCC#N)C1CCN(C(=O)Cn2cc(Nc3nc4c(N5CCC(CO)(c6ccc(Cl)cc6)CC5)cccn4n3)cn2)CC1` [Example 1-296, 3-[[1-[2-[4-[[8-[4-(4-chlorophenyl)-4-(hydroxymethyl)-1-piperidyl]-[1,2,4]triazolo[1,5-a]pyridin-2-yl]amino]pyrazol-1-yl]acetyl]-4-piperidyl]-methyl-amino]propanenitrile], in assay [1], the IC50 was determined as 12.6 nM.

Turning to `CCOC(=O)N1CC=C(c2cccn3nc(Nc4ccc(C(=O)N5CCC(N6CCOCC6)CC5)cc4)nc23)CC1` [Example 2-18, ethyl 4-[2-[4-(4-morpholinopiperidine-1-carbonyl)anilino]-[1,2,4]triazolo[1,5-a]pyridin-8-yl]-3,6-dihydro-2H-pyridine-1-carboxylate], in assay [1], the IC50 came to 134 nM.

On to `CCOC(=O)N1CC=C(c2cccn3nc(Nc4ccc(C(=O)N5CCC(N6CC(C)OC(C)C6)CC5)cc4)nc23)CC1` (centres unmarked) [Example 2-63, ethyl 4-[2-[4-[4-(2,6-dimethylmorpholin-4-yl)piperidine-1-carbonyl]anilino]-[1,2,4]triazolo[1,5-a]pyridin-8-yl]-3,6-dihydro-2H-pyridine-1-carboxylate], for which the half-maximal inhibitory concentration (IC50) in assay [1] turned out to be 151 nM.

On to `CCOC(=O)N1CC=C(c2cccn3nc(Nc4ccc(C(=O)N5CCC(N6CCOCC6)C5)cc4)nc23)CC1` (centres unmarked) [Example 2-66, ethyl 4-[2-[4-(3-morpholinopyrrolidine-1-carbonyl)anilino]-[1,2,4]triazolo[1,5-a]pyridin-8-yl]-3,6-dihydro-2H-pyridine-1-carboxylate], for which, in assay [1], the IC50 came out at 224 nM.
